Results on 7 compounds are retold here after US7713994B2 (Wyeth LLC, priority 2005, dated 2010).

One experiment has as its system LoVo. As to the kind of experiment: Cytotoxicity assay (SRB), LoVo. It is filed as cell-based. The settings on record: Homo sapiens, LoVo, 72 h, LoVo cells, SRB, read-out: In Vitro Cellular Activity IC50 LOVO. Summed up:
(§1)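 Cells seeded overnight at 37 °C, 7% CO2 (BT474 12000, HCT-116 4000, LoVo and MCF-7 6000 cells/well) in RPMI 1640 with 5% FBS, then exposed to compound dilutions for 3 days (BT474 6 days). Survival versus untreated controls by TCA fixation and SRB staining, absorbance 540 nm.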

For the next experiment, the system named is BT474. The experiment is described as follows: Cytotoxicity assay (SRB), BT474. It is filed as cell-based. The procedure, abridged: as §1
The target in the next experiment is T1, cyclin B/CDK1 enzyme (Homo sapiens, UniProt P06493).
T1 construct: purchased New England BioLabs; host or cells: Sf9 insect cells, recombinant baculovirus
T1 sequence (P06493 whole entry): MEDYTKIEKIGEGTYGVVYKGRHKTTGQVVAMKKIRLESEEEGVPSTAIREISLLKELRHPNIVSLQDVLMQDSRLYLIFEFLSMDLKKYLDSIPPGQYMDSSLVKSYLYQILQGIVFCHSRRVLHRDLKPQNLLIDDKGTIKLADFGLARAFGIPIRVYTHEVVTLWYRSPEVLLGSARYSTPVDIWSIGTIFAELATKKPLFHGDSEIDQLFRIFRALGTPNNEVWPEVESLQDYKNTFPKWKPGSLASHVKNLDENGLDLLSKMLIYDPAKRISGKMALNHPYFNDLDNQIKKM
T1 sequence (P14635 whole entry partner): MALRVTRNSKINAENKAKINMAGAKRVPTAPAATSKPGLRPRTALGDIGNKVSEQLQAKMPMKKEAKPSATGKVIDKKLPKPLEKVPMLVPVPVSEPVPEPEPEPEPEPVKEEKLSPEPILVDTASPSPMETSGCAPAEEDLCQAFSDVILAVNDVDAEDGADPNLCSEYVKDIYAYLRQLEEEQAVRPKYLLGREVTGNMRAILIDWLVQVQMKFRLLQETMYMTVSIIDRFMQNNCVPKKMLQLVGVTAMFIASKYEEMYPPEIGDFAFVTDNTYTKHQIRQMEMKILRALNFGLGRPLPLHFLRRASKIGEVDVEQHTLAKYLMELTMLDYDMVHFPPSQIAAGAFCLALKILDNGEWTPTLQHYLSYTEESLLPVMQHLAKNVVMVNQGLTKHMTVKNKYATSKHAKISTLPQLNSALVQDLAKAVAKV
As to the kind of experiment: CDK1 ELISA kinase assay (phospho-Rb ser 795 detection). It is filed as biochemical. The procedure, abridged: (§2)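 ELISA format: plate-bound GST-Rb, 200 μM ATP, Sf9 cyclin/CDK enzyme, 1 h at 30° C; then anti-pRb Ser795 primary overnight at 4° C, HRP secondary, TMB. IC50 after no-substrate background subtraction.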
Background: An ELISA detects its analyte on a solid surface through an enzyme-linked reagent.

The next experiment addresses T2, cyclin E/CDK2 enzyme (Homo sapiens, UniProt P24941).
T2 construct: made in house; host or cells: Sf9 insect cells, recombinant baculovirus
As to the kind of experiment: CDK2 ELISA kinase assay (phospho-Rb ser 795 detection). It is filed as biochemical. The procedure, abridged: as §2

The test system of another experiment is MCF-7. As to the kind of experiment: Cytotoxicity assay (SRB), MCF-7. To be noted: Homo sapiens, MCF7, 72 h, MCF-7 cells, SRB, read-out: In Vitro Cellular Activity IC50 MCF-7. In kind it is cell-based. The procedure, abridged: as §1
The next experiment relates to HCT-116. The experiment is described as follows: Cytotoxicity assay (SRB), HCT-116. To be noted: Homo sapiens, HCT-116, 72 h, HCT116 cells, SRB, read-out: In Vitro Cellular Activity IC50 HCT116. It is filed as cell-based. Summed up: as §1
Another experiment concerns the target T3, cyclin D1/cdk 4 enzyme (Homo sapiens, UniProt P11802).
T3 construct: made in house; host or cells: Sf9 insect cells, recombinant baculovirus
As to the kind of experiment: CDK4 ELISA kinase assay (phospho-Rb ser 795 detection). It is filed as biochemical. Summed up:
as §2

Setting [1] is: Homo sapiens, BT-474, 144 h, BT474 cells, 6 days, SRB; read-out: In Vitro Cellular Activity IC50 BT474.
[2] abbreviates: In Vitro Enzyme Assays, read-out: CDK1 IC50.
Setting [3] is: In Vitro Enzyme Assays, read-out: CDK2 IC50.
Where [4] appears, read: In Vitro Enzyme Assays, 200 μM ATP, read-out: CDK4 IC50.
[5] abbreviates: In Vitro Enzyme Assay, cyclin B/CDK1, read-out: CDK1 IC50.
Where [6] appears, read: In Vitro Enzyme Assay, cyclin E/CDK2, read-out: CDK2 IC50.
The mark [7] stands for this setting: In Vitro Enzyme Assay, cyclin D1/cdk 4, read-out: CDK4 IC50.
Where [8] appears, read: Homo sapiens, BT-474, 144 h, BT474 cells, SRB, 6 days; read-out: In Vitro Cellular Activity IC50 BT474.

Each structure is given as a SMILES string. Where two headings read alike, the source gives them in different places. Where only a bound is given, the exact number is not on record here.

T3 sequence (P11802 whole entry, species assumed): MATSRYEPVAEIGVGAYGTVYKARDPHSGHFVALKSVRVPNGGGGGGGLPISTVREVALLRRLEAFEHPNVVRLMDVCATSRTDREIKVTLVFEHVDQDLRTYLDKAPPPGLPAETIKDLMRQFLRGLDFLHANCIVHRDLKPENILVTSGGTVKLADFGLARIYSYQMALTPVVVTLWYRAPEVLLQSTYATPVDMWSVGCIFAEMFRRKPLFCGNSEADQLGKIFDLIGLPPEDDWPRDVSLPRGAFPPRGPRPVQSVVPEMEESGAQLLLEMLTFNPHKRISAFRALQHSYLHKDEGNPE
T3 sequence (P24385 whole entry partner, species assumed): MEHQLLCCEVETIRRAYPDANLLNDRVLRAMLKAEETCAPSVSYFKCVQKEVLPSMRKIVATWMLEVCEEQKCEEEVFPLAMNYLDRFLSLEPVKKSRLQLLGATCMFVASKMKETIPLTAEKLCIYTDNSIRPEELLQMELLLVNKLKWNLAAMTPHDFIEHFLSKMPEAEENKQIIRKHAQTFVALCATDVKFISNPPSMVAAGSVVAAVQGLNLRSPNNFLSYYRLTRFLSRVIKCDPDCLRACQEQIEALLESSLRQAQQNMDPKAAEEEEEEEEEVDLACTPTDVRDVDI

As a reminder, the IC50 is the concentration that gives 50% inhibition. In the case of `CN(C)CCNCC1CCN(c2ccc(N/C=C3\C(=O)NC(=O)c4ccc(I)cc43)cc2)CC1` [Example 446, (4Z)-4-[({4-[4-({[2-(Dimethylamino)ethyl]amino}methyl)piperidin-1-yl]phenyl}amino)methylene]-6-iodoisoquinoline-1,3(2H,4H)-dione], the IC50 is 2.9 µM with LoVo (3 days); 3.4 µM with BT474 (setting [1]); greater than 50 µM on cyclin B/CDK1 enzyme (setting [2]); greater than 50 µM on cyclin E/CDK2 enzyme (setting [3]); 3 µM in the experiment with MCF-7 (3 days); 1.7 µM with HCT-116 (3 days). On cyclin D1/cdk 4 enzyme (setting [4]), the IC50 was determined as 0.28 µM.
With `CCCCn1ccc(CN/C=C2\C(=O)NC(=O)c3ccc(I)cc32)cc1=O` [Example 529, (4Z)-6-Iodo-4-({[(1-butyl-2-oxo-1,2-dihydropyridin-4-yl)methyl]amino}methylene)isoquinoline-1,3(2H,4H)-dione], the IC50 turned out to be 1.5 µM in the experiment with LoVo (3 days); 1.2 µM in the experiment with BT474 (setting [1]); 22.4 µM on cyclin B/CDK1 enzyme (setting [5]); 5 µM at cyclin E/CDK2 enzyme (setting [6]); 2.4 µM in the experiment on MCF-7 (3 days); 1.7 µM in the experiment on HCT-116 (3 days). At cyclin D1/cdk 4 enzyme (setting [7]), the IC50 amounted to 0.1 µM.
Take `CC(C)(O)[C@H]1CCCN1Cc1ccc(N/C=C2\C(=O)NC(=O)c3ccc(I)cc32)cc1` [Example 369, D-4-({4-[2-(1-Hydroxy-1-methyl-ethyl)-pyrrolidin-1-ylmethyl]-phenylamino}-methylene)-6-iodo-4H-isoquinoline-1,3-dione]: the IC50 in the experiment on LoVo (three days) was 5 µM; in the experiment on BT474 (setting [8]), 1.2 µM; on cyclin B/CDK1 enzyme (setting [2]), greater than 50 µM; at cyclin E/CDK2 enzyme (setting [3]) it was greater than 50 µM; with MCF-7 (three days), 1.7 µM; in the experiment with HCT-116 (three days) it was 4.3 µM. Further, at cyclin D1/cdk 4 enzyme (setting [4]), the IC50 is 0.46 µM.
For the compound `COc1ccc(C(C)N/C=C2\C(=O)NC(=O)c3ccc(Br)cc32)cc1O` (stereo not shown) [Example 189, (4Z)-6-Bromo-4-({[1-(3-hydroxy-4-methoxyphenyl)ethyl]amino}methylene)isoquinoline-1,3(2H,4H)-dione], the IC50 in the experiment with LoVo (three days) is 6.4 µM; in the experiment on BT474 (setting [8]), 5.8 µM; at cyclin B/CDK1 enzyme (setting [2]), greater than 50 µM; on cyclin E/CDK2 enzyme (setting [3]) it was greater than 50 µM; with MCF-7 (three days), 9.9 µM; in the experiment on HCT-116 (three days), 7.2 µM. Further, the half-inhibitory concentration (IC50) at cyclin D1/cdk 4 enzyme (setting [4]) stood at 0.37 µM.
`O=C1NCc2cc(Br)ccc2C1=CNc1ccc(CN2CCCC2)cc1` [Example 847, 7-Bromo-4-[(4-pyrrolidin-1-ylmethyl-phenylamino)-methylene]-1,4-dihydro-2H-isoquinolin-3-one]: the IC50 was 4.9 µM with LoVo (3 days); 8.1 µM with BT474 (setting [1]); greater than 50 µM at cyclin B/CDK1 enzyme (setting [5]); greater than 50 µM on cyclin E/CDK2 enzyme (setting [6]); 6 µM in the experiment on MCF-7 (3 days); 4.3 µM in the experiment on HCT-116 (3 days). Also, on cyclin D1/cdk 4 enzyme (setting [7]), the IC50 is 5 µM.
In the case of `CN1CCN(c2ccc(NC=C3C(=O)NC(=O)c4ccc(-c5ccc(C(=O)O)cc5)cc43)cc2)CC1` [Example 685, 4-(4-{[4-(4-Methyl-piperazin-1-yl)-phenylamino]-methylene}-1,3-dioxo-1,2,3,4-tetrahydro-isoquinolin-6-yl)-benzoic acid], the IC50 in the experiment with LoVo (3 days) is 25 µM; with BT474 (setting [1]), 36.9 µM; at cyclin B/CDK1 enzyme (setting [5]), greater than 50 µM; at cyclin E/CDK2 enzyme (setting [6]), greater than 50 µM; with MCF-7 (3 days), 22.1 µM; with HCT-116 (3 days), 18.4 µM. Also, on cyclin D1/cdk 4 enzyme (setting [7]), the IC50 is 1.51 µM.
For the compound `CN1CCN(c2ccc(NC=C3C(=O)NC(=O)c4ccc(-c5ccc[nH]5)cc43)cc2)CC1` [Example 672, 4-{[4-(4-Methyl-piperazin-1-yl)-phenylamino]-methylene}-6-(1H-pyrrol-2-yl)-4H-isoquinoline-1,3-dione], the IC50 in the experiment with LoVo (3 days) was 2.9 µM; in the experiment with BT474 (setting [1]), 7.9 µM; at cyclin B/CDK1 enzyme (setting [5]), greater than 50 µM; at cyclin E/CDK2 enzyme (setting [6]) it was greater than 50 µM; with MCF-7 (3 days) it was 3.2 µM; with HCT-116 (3 days) it was 3.4 µM. Moreover, at cyclin D1/cdk 4 enzyme (setting [7]), the IC50 was 0.64 µM.
